{"source": "patent US20260365642A1", "about": "“ANTIPARASITIC COMPOUNDS” (Animol Discovery, Inc., priority 2023, published 2026)", "data": [{"system": "Dirofilaria immitis L1 larvae", "test": "Screening against microfilaria (L1 larvae) of Dirofilaria immitis, survival/motility", "type": "in vivo", "conditions": "72 h, read-out: Ranked D. immitis L1 MED Activity", "protocol": "Example 44. Screening of Compounds Against Microfilaria of Dirofilaria immitis\nTo evaluate the efficacy of compounds of the disclosure against Dirofilaria immitis, L1 stage larvae were exposed to various concentrations of the compounds to determine survival or paralysis of the larvae. Results are reported as the minimum effective dose (MED), defined as the concentration required to eliminate motility.\nTo perform the assay, microfilaria of Dirofilaria immitis were added to the wells of a microtiter plate containing buffer and the test compounds in DMSO. Microfilaria exposed to DMSO alone served as controls. An assessment was conducted at 72 hours to determine survival of the microfilaria.", "units": {"minimal effective concentration": "µM"}, "values": [{"smiles": "CN(CC1CN(S(C)(=O)=O)CCS1(=O)=O)c1cc(N2CCOC3(CCCCC3)C2)nc(C(F)(F)F)n1", "note": "(stereo not drawn) [Compound 25, 2-(((6-(1-oxa-4-azaspiro[5.5]undecan-4-yl)-2-(trifluoromethyl)pyrimidin-4-yl)(methyl)amino)methyl)-4-(methylsulfonyl)thiomorpholine 1,1-dioxide]", "minimal effective concentration": "> 100000"}, {"smiles": "CN(CC1CN(S(C)(=O)=O)CCS1)c1cc(N2CCCC3(CCCCC3)C2)nc(C(F)(F)F)n1", "note": "(stereo not drawn) [Compound 43, N-methyl-N-((4-(methylsulfonyl)thiomorpholin-2-yl)methyl)-6-(2-azaspiro[5.5]undecan-2-yl)-2-(trifluoromethyl)pyrimidin-4-amine]", "minimal effective concentration": "> 100000"}, {"smiles": "CN(C[C@H]1CN(S(C)(=O)=O)CCO1)c1cc(N2CCCC3(CCCCC3)C2)nc(C(F)(F)F)n1", "note": "[Compound 1, (S)-N-methyl-N-((4-(methylsulfonyl)morpholin-2-yl)methyl)-6-(2-azaspiro[5.5]undecan-2-yl)-2-(trifluoromethyl)pyrimidin-4-amine]", "minimal effective concentration": "< 10000"}]}]}
